The target of one data set is T1, recombinant human MAO-B (Homo sapiens, UniProt P27338).
T1 construct: purchased Sigma-Aldrich Corporation
T1 sequence (P27338 1-520): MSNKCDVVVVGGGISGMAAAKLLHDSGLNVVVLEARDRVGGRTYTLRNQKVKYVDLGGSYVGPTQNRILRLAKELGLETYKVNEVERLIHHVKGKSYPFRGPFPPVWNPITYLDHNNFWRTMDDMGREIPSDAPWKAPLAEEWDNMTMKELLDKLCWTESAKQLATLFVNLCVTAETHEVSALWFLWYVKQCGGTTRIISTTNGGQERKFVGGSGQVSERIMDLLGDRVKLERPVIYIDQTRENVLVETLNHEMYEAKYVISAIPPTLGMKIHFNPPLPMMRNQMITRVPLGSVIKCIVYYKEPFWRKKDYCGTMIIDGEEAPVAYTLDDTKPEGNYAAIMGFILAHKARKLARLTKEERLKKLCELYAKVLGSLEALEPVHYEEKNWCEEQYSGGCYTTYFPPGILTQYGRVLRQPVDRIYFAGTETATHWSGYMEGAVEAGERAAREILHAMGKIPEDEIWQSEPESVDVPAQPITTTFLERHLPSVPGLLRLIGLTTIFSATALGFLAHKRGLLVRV
As to the kind of experiment: MAO-B inhibition, MAO-Glo commercial kit. It is filed as biochemical. The note with it: Ki converted from IC50 by Cheng-Prusoff; duplicate, mean ± SD; read-out: Ki hMAO-B. The method, then:
Inhibitory potency on MAO-B enzyme from recombinant human MAO-B were carried out by a fluorometric method with a commercial kit (Promega, MAO-Glo Assay). The MAO enzyme incubation experiments were carried with a MAO-B substrate, methyl (S)-2-(6-(2-aminoethoxy) benzo[d]thiazol-2-yl)-4,5-dihydrothiazole-4-carboxylate, which was converted to luciferin methyl ester. Then the “Luciferin Detection Reagent” was added to change the methyl ester derivative to luciferin, stop the MAO-B reaction, and simultaneously produce light. The intensity of light is directly in proportion to MAO-B activity. The assay was carried in a 96-well black opaque microplate in duplicate. The reaction mixture was composed of 12.5 μL of MAO-B substrate (a final concentration of 4 μM), 25 μL of human MAO-B (1 μg of protein/well), and 12.5 μL of test compounds for each well. After 1 h of incubation at 37 °C, each well added 50 μL of “Luciferin Detection Reagent”, and incubated an additional 20 min. the luminescent signal of microplate was measured by a luminometer. The signal from reaction of MAO-B enzyme and substrate without inhibitors accounted as the positive control, whereas the signal from reaction of MAO-B enzyme and inhibitors in the absence of substrate accounted as the negative control. Compound concentrations of 1 μM were tested at first. IC50 values (the half maximal inhibitory concentration) were performed from concentration–response curves, plotted by the GraphPad Prism software. All experiments were performed in duplicate, and data are expressed as mean ± SD.

Another data set deals with T2, human A2AR (Homo sapiens, UniProt P29274).
T2 construct: expressed in transfected cells
As to the kind of experiment: Radioligand binding assay ([3H]ZM241385 competition) on membranes of HEK-293 cells transfected with human A2AR. The note with it: [3H]ZM241385 displacement; Ki converted from IC50 by Cheng-Prusoff; duplicate, mean ± SD; read-out: Ki hA2AR. The method, then: The binding affinity of test compounds was determined using radioligand binding assays. Human A2AR cDNA was stably transfected into HEK-293 cells. Membranes from the transfected cell were used in the interactive capacity of each compound toward the A2AR. Competition binding assay experiments by incubating membranes of 10 μg protein with 2 nM [3H]ZM241385 were carried out, with interval concentrations ranging from 0.1 nM to 100 μM of test compounds in 96-well filter plates at 4 °C for 90 min. After incubation experiments, free and bound radioligands were split by filtering and washing. Last, filter-bound radioactivity was counted after addition of 30 μL/well of scintillation solution. Nonspecific binding was measured in the presence of 100 μM ZM241385. The experiments were carried in duplicate. IC50 values were determined using a nonlinear regression curve fitting by the program GraphPad Prism. The affinities of compounds were calculated by Ki value which was from the IC50 values according as the Cheng−Prusoff equation [19].

Data set [1] concerns haloperidol-induced catalepsy in rats. Kind of data set: Haloperidol-induced catalepsy, bar test. In kind it is in vivo. The note with it: i.p. The method, then: Catalepsy was measured using a thin metal bar test at 9.0 cm height. In this test, each rat was injected intraperitoneally by haloperidol (1.5 mg/kg). Before i.p. administration of vehicle (2% Tween 80–saline), PX-D-P6 and PX-E-P8 (5, 15, 50 mg/kg), at time 0 min, we tested all rats for successful induction of catalepsy. The length of time (descent latency) it persisted in hanging onto the metal bar was measured for a period of up to 300 s (maximum score). After this period, the rat was gently removed from the bar. The high bar test was performed 20 min after the injection of compound. Descent latencies have been presented as median and interquartile ranges. Differences between medians were analyzed by Kruskal-Wallis test, followed by Bonferroni's test.

The nature of data set [2]: Plasma pharmacokinetics after i.p. administration. It is filed as in vivo, Sprague-Dawley rats. The note with it: 50 mg/kg, rats. The source says:
(§1) Sprague-Dawley rats (200 ± 20 g) were obtained from the Laboratory Animal Center of Wenzhou Medical University (Wenzhou, China) to study the pharmacokinetics and tissue distribution studies (TDS) of PX-D-P6 and PX-E-P8 following intraperitoneal injection (i.p.) administration. The experiment procedures and protocols were approved the Animal Care and Use Committee of Wenzhou Medical College and complied with the Guide for the Care and Use of Laboratory Animals. The corresponding ethical approval code was WMU20161025.
(§2) The chosen compounds dissolved in suspension formulation (2 % Tween 80–saline) were administered to each rat at a dose of 50 mg/kg. Blood samples (0.3 mL) were collected from the caudal vein into 1.5 mL tapered plastic centrifuge tubes (pretreated with K2EDTA as an anticoagulant) at pre-dose, 0.08, 0.16, 0.25, 0.5, 1, 2, 4, 8, 12, 24 h after i.p. administration. Separately, blood and brain samples were collected at pre-dose and 1 h for TDS. Blood samples were immediately centrifuged at 3000 g for 10 min for isolation of the plasma. Brain samples were homogenized in phosphate buffer saline. 100 μL plasma or 200 μL brain sample was precipitated with addition of 400 μL acetonitrile and vortex mixed for 1 min and centrifuged at 10,000 g for 10 min. Finally, 2μL supernatant was injected into UPLC/MS system. Calibration standards samples were prepared with blank rat plasma or brain homogenates. Plasma pharmacokinetic parameters were analyzed by DAS (Drug and Statistics) software (Version 2, Wenzhou Medical University, Wenzhou, China).

Data set [3] is described as follows: Plasma and brain distribution at 1 h after i.p. administration. In kind it is in vivo. The note with it: Sprague-Dawley, rat, ip, rats, 1 h after i.p. 50 mg/kg; for concentration at 1 h: n = 6.
Text: as §1, §2

Where [4] appears, read: Sprague-Dawley, rat, plasma, ip, n = 6.

Read-outs that look alike come from different tables or passages of the source. Some results are limits rather than exact numbers.

T2 sequence (P29274 whole entry): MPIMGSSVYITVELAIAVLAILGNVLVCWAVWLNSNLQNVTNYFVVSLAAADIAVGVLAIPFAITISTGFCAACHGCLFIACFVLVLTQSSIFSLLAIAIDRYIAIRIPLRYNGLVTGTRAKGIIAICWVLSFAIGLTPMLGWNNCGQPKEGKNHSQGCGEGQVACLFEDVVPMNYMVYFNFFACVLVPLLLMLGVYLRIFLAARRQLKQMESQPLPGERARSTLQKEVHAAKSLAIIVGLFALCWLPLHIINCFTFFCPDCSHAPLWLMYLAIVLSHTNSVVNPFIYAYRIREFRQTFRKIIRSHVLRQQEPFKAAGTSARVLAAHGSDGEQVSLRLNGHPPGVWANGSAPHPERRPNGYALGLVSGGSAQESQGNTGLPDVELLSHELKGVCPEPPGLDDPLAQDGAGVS

Broadly, the Ki is the equilibrium dissociation constant of an inhibitor or competing ligand from its target. The melting point is the temperature, or range, at which the solid turns liquid. Turning to `Cn1c(=O)c2[nH]c(-c3cccc(NC(=O)c4cccc(Cl)c4)c3)nc2n(C)c1=O` [PX-D-M 4, 3-Chloro-N-(3-(1,3-dimethyl-2,6-dioxo-2,3,6,7-tetrahydro-1H-purin-8-yl)phenyl)benzamide], the melting point was more than 300 °C. At recombinant human MAO-B, the Ki was 1270 ± 180 nM. In addition, the Ki on human A2AR was 3610 ± 410 nM.

On to `Cn1c(=O)c2[nH]c(-c3ccc(NC(=O)c4cccc(Cl)c4)cc3)nc2n(C)c1=O` [PX-D-P4, 3-Chloro-N-(4-(1,3-dimethyl-2,6-dioxo-2,3,6,7-tetrahydro-1H-purin-8-yl)phenyl)benzamide], for which the melting point is more than 300 °C. For the same molecule, the Ki on recombinant human MAO-B was 250 ± 50 nM. In addition, at human A2AR, the Ki was 1520 ± 160 nM.

For the molecule `CCn1c(=O)c2c(nc(/C=C/c3ccc(OC)c(OC)c3)n2C)n(CC)c1=O` [Istradefylline, reference compound], the Ki at recombinant human MAO-B was more than 10000 nM.

The term Tmax denotes the time at which the peak concentration occurs. As a reminder, the AUC(0-t) is the area under the concentration-time curve up to a stated or last time point. High values mean more exposure, low ones less exposure. Usually Cmax stands for the peak of the concentration-time curve. In general, half-life refers to the time in which the quantity being followed falls by half. The low end stands for rapid decline, the high end for slow decline. Regarding `Cn1c(=O)c2c(nc(-c3ccc(NC(=O)/C=C/c4cccc(Cl)c4)cc3)n2C)n(C)c1=O` [PX-E-P8, (E)-3-(3-Chlorophenyl)-N-(4-(1,3,7-trimethyl-2,6-dioxo-2,3,6,7-tetrahydro-1H-purin-8-yl)phenyl)acrylamide], the melting point is more than 300 °C. Further, the Anti-catalepsy ability result in data set [1] (50 mg/kg (high dose)) was “significant anti-catalepsy ability”. The “Effect on haloperidol-induced catalepsy” value in data set [1] (different doses (5, 15 and 50 mg/kg), haloperidol 1.5 mg/kg) is listed as “significant reduction in catalepsy”. Moreover, in data set [1] (low dose), the Anti-catalepsy effect result is reported as “slight effects”. Further, the Tmax in data set [2] (Sprague-Dawley, rat, plasma, ip, n = 6, read-out: Tmax) worked out at 28.8 min. In addition, in data set [2] (setting [4]), the AUC(0-t) was 15600 ± 1540 ng·h/mL, the Cmax is 1640 ± 436 ng/mL and the half-life is 196 ± 23.4 min. Besides, in data set [2] (n = 6), the CL was found to be 171.3 ± 36.5 mL/min/kg and the Tmax was found to be 27 ± 12.6 min. Further, the Kp at 1 h in data set [3] (brain and plasma, read-out: B/P Ratio (brain/plasma ratio)) was found to be 0.97. For the same molecule, the concentration at 1 h in data set [3] (brain, read-out: Brain concentration) is 887 ± 113 ng/g. For the same molecule, the concentration at 1 h in data set [3] (plasma, read-out: Plasma concentration) was determined as 915 ± 231 ng/mL. The Ki at recombinant human MAO-B came out at 630 ± 110 nM. Also, the Ki on human A2AR came out at 850 ± 110 nM.

For the molecule `COc1ccc(/C=C/C(=O)Nc2cccc(-c3nc4c([nH]3)c(=O)n(C)c(=O)n4C)c2)cc1OC` [PX-E-M5], the melting point was more than 300 °C.

As to `COc1ccc(C(=O)Nc2cccc(-c3nc4c(c(=O)n(C)c(=O)n4C)n3C)c2)cc1OC` [PX-D-M10, 3,4-Dimethoxy-N-(3-(1,3,7-trimethyl-2,6-dioxo-2,3,6,7-tetrahydro-1H-purin-8-yl)phenyl)benzamide], the melting point was more than 300 °C. Further, the inhibition constant (Ki) at recombinant human MAO-B is 2540 ± 310 nM. Further, the Ki on human A2AR was 3590 ± 360 nM.

On to `COc1ccc(/C=C/C(=O)Nc2cccc(-c3nc4c(c(=O)n(C)c(=O)n4C)n3C)c2)cc1OC` [PX-E-M10], for which the melting point was more than 300 °C.

`COc1ccc(C(=O)Nc2cccc(-c3nc4c([nH]3)c(=O)n(C)c(=O)n4C)c2)cc1OC` [PX-D-M5, N-(3-(1,3-Dimethyl-2,6-dioxo-2,3,6,7-tetrahydro-1H-purin-8-yl)phenyl)-3,4-dimethoxybenzamide] displayed a melting point of more than 300 °C. Further, at recombinant human MAO-B, the Ki came to 2360 ± 310 nM. For the same molecule, the Ki at human A2AR was 4990 ± 750 nM.

In turn, `Cn1c(=O)c2c(nc(-c3cccc(NC(=O)c4cccc(Cl)c4)c3)n2C)n(C)c1=O` [PX-D-M9, 3-Chloro-N-(3-(1,3,7-trimethyl-2,6-dioxo-2,3,6,7-tetrahydro-1H-purin-8-yl)phenyl)benzamide] came in with a melting point of more than 300 °C. Further, on recombinant human MAO-B, the Ki was 760 ± 110 nM. On human A2AR, the Ki came to 2440 ± 210 nM.

In turn, `COc1ccc(C(=O)Nc2ccc(-c3nc4c([nH]3)c(=O)n(C)c(=O)n4C)cc2)cc1OC` [PX-D-P5, N-(4-(1,3-Dimethyl-2,6-dioxo-2,3,6,7-tetrahydro-1H-purin-8-yl)phenyl)-3,4-dimethoxybenzamide] had a melting point of more than 300 °C. For the same molecule, the Ki at recombinant human MAO-B was 1920 ± 250 nM. Moreover, the Ki at human A2AR amounted to 4270 ± 510 nM.

As for `Cn1c(=O)c2[nH]c(-c3ccc(NC(=O)/C=C/c4cccc(Cl)c4)cc3)nc2n(C)c1=O` [PX-E-P4, (E)-3-(3-Chlorophenyl)-N-(4-(1,3-dimethyl-2,6-dioxo-2,3,6,7-tetrahydro-1H-purin-8-yl)phenyl)acrylamide], the melting point was more than 300 °C. In addition, at recombinant human MAO-B, the Ki is 1750 ± 150 nM. Also, the Ki on human A2AR came out at 6430 ± 980 nM.

For `COc1ccc(C(=O)Nc2ccc(-c3nc4c(c(=O)n(C)c(=O)n4C)n3C)cc2)cc1OC` [PX-D-P10, 3,4-Dimethoxy-N-(4-(1,3,7-trimethyl-2,6-dioxo-2,3,6,7-tetrahydro-1H-purin-8-yl)phenyl)benzamide], the melting point was more than 300 °C. Also, the Ki on recombinant human MAO-B was 2970 ± 370 nM. Also, the Ki on human A2AR came out at 1340 ± 160 nM.

`Cn1c(=O)c2c(nc(-c3ccc(NC(=O)c4cccc(Cl)c4)cc3)n2C)n(C)c1=O` [PX-D-P9, 3-Chloro-N-(4-(1,3,7-trimethyl-2,6-dioxo-2,3,6,7-tetrahydro-1H-purin-8-yl)phenyl)benzamide] gave a melting point of more than 300 °C. Besides, the Ki at recombinant human MAO-B amounted to 1510 ± 190 nM. Further, at human A2AR, the Ki came out at 270 ± 80 nM.

The values are drawn from publication PMC6152622, “Synthesis and Evaluation of Phenylxanthine Derivatives as Potential Dual A2AR Antagonists/MAO-B Inhibitors for Parkinson’s Disease” (Molecules : A Journal of Synthetic Chemistry and Natural …, 2017).
